Several values for one entry are separate records, joined by “and”; a condition that tells them apart may be missing. Identical values can stand only once. Like-named read-outs stand apart in the source and are kept apart here.
How the values were obtained:
[1] = Pharmacokinetic study in mice, plasma by LC-MS/MS; assay type: in vivo, female C57BL/6 mice; conditions: ip
Procedure: Samples (plasma) were collected after 15, 30, 60 and 120 min of drug administration.
All samples were analyzed by an LC-MS/MS bioanalytical methodology.

[2] = system: human mesenchymal stem cells (WJ-MSCs); test: MTT viability assay, toxicity to normal cells; assay type: cell-based; conditions: 48 h growth in presence of drug, MTT assay (Figure 1)
Excerpt: Thus, human mesenchymal stem cells were extracted from Wharton's jelly (matrix) of the human fetal umbilical cord, also known as Wharton's Jelly Mesenchymal Stem cells (WJ-MSCs), from full-term pregnancies, as described in Christodoulou et al. [2022] and Goulielmaki et al. [2019].
WJ-MSCs up to seventh passage were used for this in vitro assay (b22 population doublings). The mean population doubling time (PDT) was 32+/- hours and cells maintained a consistent MSC immunophenotypic profile. […]
Cell viability of (WJ-MSCs) was determined colorimetrically in a 96-well plate assay, using the tetrazolium compound MTS (3-[4,5,dimethylthiazol-2-yl]-5-[3-carboxymethoxy-phenyl]-2-[4-sulfophenyl]-2H-tetrazolium, inner salt), which is bioreduced by cells into a colored formazan product that is soluble in tissue culture medium. […]
At a concentration of 3.5x10^2 cells/200 µL culture medium/well (37 °C, 5% CO2), WJ-MSCs were plated into 96-well microtiter plates. […] At the end, the absorbance was measured at 490nm (with 650nm as a reference wavelength) in a microplate reader (monochromator) [Monochro-mator Microplate Reader safire2 TECAN AUSTRIA GMBH/Measurement parameter Editor Magellan (version 6)].

[3] = system: MDA-MB-231; test: Platinum cell uptake by mass cytometry (CyTOF), MDA-MB-231; assay type: cell-based; conditions: 50 µM, 60 min, in comparison to carboplatin (Figure 2)
Procedure: (§1) Cell cultures: Cancer cell lines, SkBr3, MDA-MB-231, MCF-7 and A549, which overexpress biotin receptors on their surface membranes, were each independently cultured in Dulbecco's Modified Eagle Medium (DMEM), supplemented with 10% fetal bovine serum (FBS), penicillin (100 µ/mL) and streptomycin (100 µg/mL) at 37 °C and 5% CO2.
(§2) For MCF-7, MDA-MB-231 and SkBr3 cell lines, an additional step was performed by preincubating for 15 min with 10-100 µM biotin. The quantification was performed by means of mass cytometry. Cell singlet discrimination - staining protocol B of the mass cytometer supplier (Fluidigm) was followed.
(§3) Medium was removed from cultures and cells were pelleted at 1500 rpm. Resuspension of cells was performed in an appropriate volume of RPMI 1640 or DMEM medium to obtain a density of about 1.5-3 x 10^6 cells per mL. Cells were fractionated and treated with different concentrations of each drug or maintained as is (control). […] Suspensions were incubated for 60 min at 37 °C and 5% CO2. Suspensions used to evaluate the effect of biotin in platinum cellular uptake, were preincubated with 100 µM biotin for 15 min before the treatment with each drug. […] A small volume of suspensions was maintained to quantify cells using Trypan blue staining. […]

[4] = system: A549; test: Platinum cell uptake by mass cytometry (CyTOF), A549; assay type: cell-based; conditions: 50 µM, 60 min, in comparison to carboplatin (Figure 2)
Procedure: as §1, §2, §3

[5] = Solubility; conditions: DMF
[6] = system: SkBr3; test: Platinum cell uptake by mass cytometry (CyTOF), SkBr3; assay type: cell-based; conditions: for cellular uptake (CyTOF Pt195 signal): 50 µM, 60 min, in comparison to 50 µM carboplatin (Figure 3)
Procedure: as §1, §2
Medium was removed from cultures and cells were pelleted at 1500 rpm. Resuspension of cells was performed in an appropriate volume of RPMI 1640 or DMEM medium to obtain a density of about 1.5-3 x 10^6 cells per mL. Cells were fractionated and treated with different concentrations of each drug or maintained as is (control). […] Suspensions were incubated for 60 min at 37 °C and 5% CO2. Suspensions used to evaluate the effect of biotin in platinum cellular uptake, were preincubated with 100 µM biotin for 15 min before the treatment with each drug. After incubation, cells were stained using Maxpar cell staining buffer (MCSB) and then fixed using 1.6% paraformaldehyde in PBS for 10 min at room temperature. Incubation with intercalator 103Rh diluted in Maxpar fix-perm buffer was performed overnight at 4 °C. Cells were washed twice with MCSB, samples were pelleted and resuspended in cell acquisition solution (CAS). A small volume of suspensions was maintained to quantify cells using Trypan blue staining. As last step, each sample was diluted with CAS and calibration beads that include metal isotopes.

[7] = system: SkBr3 human breast cancer cells; test: MTT viability assay, SkBr3; assay type: cell-based; conditions: 72h (Table 3b)
[8] = system: MDA-MB-231; test: MTT viability assay, MDA-MB-231; assay type: cell-based, human; conditions: 72h (Table 3b)
[9] = system: MCF-7; test: MTT viability assay, MCF-7; assay type: cell-based, human
[10] = system: HCT-116; test: MTT viability assay, HCT-116; assay type: cell-based; conditions: 72h, human colon cancer cells, biotin receptor-negative (Table 3a)
[11] = 72h, with addition of 10 µM D-(+)-Biotin (Table 2b), read-out: MCF-7 and biotin IC50
[12] = 72h, without biotin (Table 2b), read-out: MCF-7 IC50

Row | SMILES | concentration at which less than 50% viability is reached [2] [µM] | cellular uptake (CyTOF Pt195 signal) [6] | IC50 [9, 11] [µM] | IC50 [9, 12] [µM] | IC50 [10] | other results
1 | [NH3+][Pt-2]1([NH3+])[O]C(=O)C2(CCC2)C(=O)[O]1 [Carboplatin] | 100 |  |  |  |  | Cmax ([1]; mouse, 60 mg/kg): 131 ± 50 µM; AUC at 2 h ([1]; mouse, 60 mg/kg, read-out: Areas under the curve (AUCs) (converted)): 69.4 µM·h
2 | C[C@@H]1[NH2+][Pt-2]([Cl])([Cl])[NH2+][C@@H]1CCCCCC(=O)O [PMX114, (7R,8S)-7,8-diaminononanoic acid dichloroplatinum(II)] | > 300 | significantly greater |  |  |  | AUC ([1]; female, C57BL/6, mouse, 75 mg/kg, read-out: Areas under the curve (AUCs) (converted)): 42.1 µM·h; platinum uptake (CyTOF Pt195 signal) [3]: significantly greater; platinum uptake (CyTOF Pt195 signal) [4]: significantly greater; Solubility [5]: good; effect of biotin preincubation on platinum entry ([6]; preincubation with 100 µM of biotin for 15 min, then 50 µM drug): inhibition of platinum entry
3 | CC(N)C(N)CCCCCC(=O)O.O=C1[O][Pt][O]C1=O [PMX118, (7R,8S)-7,8-diaminononanoic acid oxalatoplatinum(ll)] |  | significantly greater | 290 | 133 | 225 µM and > 250 µM | IC50 [7]: 225 µM and > 250 µM; IC50 [8]: 116 µM and 144 µM; IC50 ([9]; 72h (Table 3b), read-out: MCF-7 IC50): 100 µM
4 | N.N.[Cl][Pt][Cl] [Cisplatin, reference compound] |  |  | 12 | 9 | 7 µM and 8 µM | 

From EP4461293B1, “BIOTIN RECEPTOR-BINDING […] COMPOUNDS” (Biomedical Research Foundation Academy of Athens, priority 2023, dated 2024)
